Among the data in ChEMBL document CHEMBL5725882, “Imide and acylurea derivatives as modulators of the glucocorticoid receptor” (2017) are Ki values, retold here.

This test deals with T1, Glucocorticoid receptor (Homo sapiens, UniProt P04150).
T1 sequence (P04150 whole entry): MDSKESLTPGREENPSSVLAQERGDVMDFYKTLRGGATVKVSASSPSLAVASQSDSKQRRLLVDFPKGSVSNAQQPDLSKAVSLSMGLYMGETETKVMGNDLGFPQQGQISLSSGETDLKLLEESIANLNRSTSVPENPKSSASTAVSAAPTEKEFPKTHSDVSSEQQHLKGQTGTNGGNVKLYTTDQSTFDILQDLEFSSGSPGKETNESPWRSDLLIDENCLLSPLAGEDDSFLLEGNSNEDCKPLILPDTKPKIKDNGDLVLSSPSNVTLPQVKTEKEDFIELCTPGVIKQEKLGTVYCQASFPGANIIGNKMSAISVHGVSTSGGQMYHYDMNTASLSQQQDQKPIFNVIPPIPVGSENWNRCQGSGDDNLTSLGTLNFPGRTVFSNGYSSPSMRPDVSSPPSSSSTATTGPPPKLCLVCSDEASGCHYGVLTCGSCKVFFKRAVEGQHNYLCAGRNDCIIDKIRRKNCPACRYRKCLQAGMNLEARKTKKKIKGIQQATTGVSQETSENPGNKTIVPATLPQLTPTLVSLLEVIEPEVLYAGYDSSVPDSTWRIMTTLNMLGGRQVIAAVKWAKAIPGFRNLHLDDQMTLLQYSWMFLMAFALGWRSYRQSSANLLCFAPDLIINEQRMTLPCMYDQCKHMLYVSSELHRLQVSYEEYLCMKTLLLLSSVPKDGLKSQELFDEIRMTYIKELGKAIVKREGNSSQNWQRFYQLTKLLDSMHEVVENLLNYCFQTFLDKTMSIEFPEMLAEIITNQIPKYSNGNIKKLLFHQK
The test can be described thus: Briefly, purified human recombinant full-length glucocorticoid receptor (2 nM) was mixed with fluorescently labeled glucocorticoid (1 nM Fluormone GS Red) in the presence or absence of test compound. After two hour incubation at room temperature in the dark, the fluorescence polarization (FP) of the samples was measured. […] Test compounds were analyzed in the concentration range from 8.5E-05 μM to 5 μM. Binding Assay (II):In order to measure the binding of compounds on the glucocorticoid receptor a commercially available kit was used (Glucocorticoid receptor competitor assay kit, PanVera Co., Madison, Wis., P2816). Briefly, a cell lysate containing recombinantly expressed human full-length glucocorticoid receptor was mixed with a fluorescently labeled glucocorticoid (1 nM Fluormone GS1) in the presence or absence of test compound. After one hour at room temperature, the fluorescence polarization (FP) of the samples were measured. […] An appropriate cell lysate or purified NHR is used as the source of the NHR. The fluorescent probe and unlabeled competitor are appropriate for the specific NHR, i.e., are ligands for the specific NHR. Background: In fluorescence polarisation assays a small probe gives low polarisation when free and higher when bound to something large.
With `CC(=O)NC(=O)C(C)(C)[C@@H]1c2ccc(-c3ccc(C(=O)N(C)C)cc3)nc2Oc2c(F)cccc21`, the Ki (as a rule, a measure of affinity in units of concentration, obtained from inhibition or displacement) is 93.5 nM.

On to `CC(C)(C(=O)NC(N)=O)[C@H]1c2ccccc2Oc2nc(-c3ccc(C(=O)N4CCOCC4)cc3)ccc21`, for which the Ki amounted to 1.81 nM.

On to `CNC(=O)NC(=O)C(C)(C)[C@@H]1c2ccc(-c3ccc(C(C)(C)O)cc3)nc2Oc2c(F)cccc21`, for which the Ki amounted to 1.42 nM.

Turning to `CC(=O)NC(=O)C(C)(C)[C@H]1c2ccccc2Oc2nc(-c3ccc(C(=O)N4CCOCC4)cc3)ccc21`, the Ki stood at 7.01 nM.

Consider `COc1ccc2c(c1)Oc1ccccc1[C@@H]2C(C)(C)C(=O)NC(N)=O`, for which the Ki stood at 8.57 nM.

`CC(C)(O)c1ccc(-c2ccc3c(n2)Oc2c(F)cccc2[C@@H]3C(C)(C)C(=O)NC(N)=O)cc1`: the Ki was determined as 0.32 nM.

Regarding `COC(=O)NC(=O)C(C)(C)[C@@H]1c2ccc(-c3ccc(C(=O)OC)cc3)nc2Oc2c(F)cccc21`, the Ki was 5.28 nM.

Take `CC(C)(C(=O)NC(N)=O)[C@@H]1c2ccc(-c3ccc(C(=O)N4CCC4)cc3)nc2Oc2c(F)cccc21`: the inhibition constant (Ki) amounted to 0.93 nM.

As for `CC(C)(C(=O)NC(=O)NCCO)[C@@H]1c2ccc(-c3ccc(C(=O)N4CCOCC4)cc3)nc2Oc2c(F)cccc21`, the Ki came to 61.7 nM.

As to `CC(C)NC(=O)NC(=O)C(C)(C)[C@@H]1c2ccc(-c3ccc(C(=O)N4CCOCC4)cc3)nc2Oc2c(F)cccc21`, the Ki came to 32.4 nM.

With `CC(C)(O)c1ccc(-c2ccc3c(n2)Oc2c(F)cccc2[C@@H]3C(C)(C)C(=O)NC(=O)NCCO)cc1`, the Ki worked out at 25.1 nM.

Regarding `CC(C)(O)CNC(=O)NC(=O)C(C)(C)[C@@H]1c2ccc(-c3ccc(C(=O)N4CCOCC4)cc3)nc2Oc2c(F)cccc21`, the Ki was determined as 87.1 nM.

On to `CC(C)S(=O)(=O)c1ccc(-c2ccc3c(n2)Oc2ccccc2[C@@H]3C(C)(C)C(=O)NC(N)=O)cc1`, for which the Ki was 0.58 nM.

As to `CNC(=O)NC(=O)C(C)(C)[C@@H]1c2ccc(Cl)nc2Oc2c(F)cccc21`, the Ki came to 37.5 nM.

With `CCC(=O)NC(=O)C(C)(C)[C@@H]1c2ccc(-c3ccc(C(=O)N4CCOCC4)cc3)nc2Oc2c(F)cccc21`, the Ki amounted to 66.5 nM.

Regarding `CC(C)(O)CNC(=O)NC(=O)C(C)(C)[C@@H]1c2ccc(-c3ccc(C(C)(C)O)cc3)nc2Oc2c(F)cccc21`, the Ki worked out at 20.8 nM.

Regarding `CC(C)(C(=O)NC(=O)N1CCOCC1)[C@@H]1c2ccc(-c3ccc(C(=O)N4CCOCC4)cc3)nc2Oc2c(F)cccc21`, the Ki is 171 nM.
